Among the data in ChEMBL document CHEMBL5532637, “Antimicrobial activity of natural and semi-synthetic carbazole alkaloids” (Eur J Med Chem, 2023) are MIC and zone of inhibition values, retold here.

Type in all cases: functional
The subject of assay [1] is Klebsiella pneumoniae. The assay can be described thus: Antibacterial activity against colistin resistant Klebsiella pneumoniae assessed as inhibition of bacterial growth incubated for 24 hrs.
The test system of assay [2] is Staphylococcus aureus. Description: Antimicrobial activity against Staphylococcus aureus 4220 assessed as inhibition of microbial growth incubated for 24 hrs by two-fold serial dilution assay.
The test system of assay [3] is Staphylococcus aureus. Description: Antimicrobial activity against methicillin-resistant Staphylococcus aureus CCARM 3167 assessed as inhibition of microbial growth incubated for 24 hrs by two-fold serial dilution assay.
Assay [4] relates to Streptococcus mutans. Description: Antimicrobial activity against Streptococcus mutans 3289 assessed as inhibition of microbial growth incubated for 24 hrs by two-fold serial dilution assay.
Assay [5] has as its system Escherichia coli. Description: Antimicrobial activity against Escherichia coli 1924 assessed as inhibition of microbial growth incubated for 24 hrs by two-fold serial dilution assay.
The subject of assay [6] is Candida albicans. Description: Antimicrobial activity against Candida albicans 7535 assessed as inhibition of microbial growth incubated for 24 hrs by two-fold serial dilution assay.
Assay [7] concerns Staphylococcus aureus. The assay can be described thus: Antibacterial activity against Staphylococcus aureus […] assessed as inhibition of bacterial growth.
The subject of assay [8] is Bacillus subtilis. The assay can be described thus: Antibacterial activity against Bacillus subtilis DSM 6333 assessed as inhibition of bacterial growth.
Assay [9] concerns Proteus mirabilis. The assay can be described thus: Antibacterial activity against Proteus mirabilis ATCC 29906 assessed as inhibition of bacterial growth.
The subject of assay [10] is Candida albicans. The assay can be described thus: Antifungal activity against Candida albicans ATCC 1231 assessed as inhibition of fungal growth.
Assay [11] deals with Staphylococcus aureus. The assay can be described thus: Antibacterial activity against methicillin-resistant Staphylococcus aureus N315 assessed as inhibition of bacterial growth by micro broth dilution method. Background: In broth dilution the organism is exposed to a series of concentrations in liquid medium.
Assay [12] concerns Escherichia coli. Description: Antibacterial activity against Escherichia coli assessed as inhibition of bacterial growth by micro broth dilution method.
Assay [13] deals with Escherichia coli. Description: Antibacterial activity against Escherichia coli assessed as zone of inhibition at 400 ug/ml by disc-diffusion method. Conditions: read-out: IZ.
In assay [14] the test system is Bacillus subtilis. The assay can be described thus: Antibacterial activity against Bacillus subtilis assessed as zone of inhibition at 400 ug/ml by disc-diffusion method. The settings on record: read-out: IZ.
Assay [15] deals with Pseudomonas aeruginosa. Description: Antibacterial activity against Pseudomonas aeruginosa assessed as zone of inhibition at 400 ug/ml by disc-diffusion method. Conditions: read-out: IZ. A general note: In agar diffusion tests the substance spreads into inoculated agar from a disc or well.
Assay [16] has as its system Macrophomina phaseolina. The assay can be described thus: Antifungal activity against Macrophomina phaseolina assessed as zone of inhibition at 400 ug/ml by disc-diffusion method. Conditions: read-out: IZ.
Assay [17] has as its system Fusarium oxysporum. Description: Antifungal activity against Fusarium oxysporum assessed as zone of inhibition at 400 ug/ml by disc-diffusion method. The settings on record: read-out: IZ.
The test system of assay [18] is Aspergillus flavus. The assay can be described thus: Antifungal activity against Aspergillus flavus assessed as zone of inhibition at 400 ug/ml by disc-diffusion method. Conditions: read-out: IZ.
The test system of assay [19] is Staphylococcus aureus. Description: Antibacterial activity against methicillin-resistant Staphylococcus aureus assessed as inhibition of bacterial growth incubated for 12 to 36 hrs by broth dilution method. The settings on record: time 12-36 hrs.
Assay [20] relates to Enterococcus faecalis. The assay can be described thus: Antibacterial activity against multidrug-resistant Enterococcus faecalis assessed as inhibition of bacterial growth incubated for 12 to 36 hrs by broth dilution method. The settings on record: time 12-36 hrs.
For assay [21], the system named is Staphylococcus aureus. Description: Antibacterial activity against Staphylococcus aureus ATCC 25923 assessed as inhibition of bacterial growth incubated for 24 hrs by broth dilution assay.
The test system of assay [22] is Staphylococcus aureus. The assay can be described thus: Antibacterial activity against methicillin-resistant Staphylococcus aureus clinical isolate assessed as inhibition of bacterial growth incubated for 24 hrs by broth dilution assay.
Assay [23] has as its system Staphylococcus aureus. The assay can be described thus: Antibacterial activity against Staphylococcus aureus assessed as inhibition of bacterial growth by two-fold serial dilution assay.
Assay [24] concerns Staphylococcus aureus. The assay can be described thus: Antibacterial activity against Staphylococcus aureus ATCC 29213 assessed as inhibition of bacterial growth by two-fold serial dilution assay.
Assay [25] deals with Staphylococcus aureus. Description: Antibacterial activity against methicillin-resistant Staphylococcus aureus assessed as inhibition of bacterial growth by two-fold serial dilution assay.
The test system of assay [26] is Staphylococcus aureus. The assay can be described thus: Antibacterial activity against Staphylococcus aureus ATCC 25923 assessed as inhibition of bacterial growth by two-fold serial dilution assay.

SMILES strings stand for the structures. Converted amounts (≈) assume the structure as drawn.

Broadly, the MIC is the lowest concentration that inhibits growth of the organism. With `CCn1c2ccccc2c2c3[nH]c(C(=O)NNC(=O)c4ccc([N+](=O)[O-])cc4)cc3ccc21`, the MIC in [1] was 64 µg/mL (≈ 145 µM).

For the compound `CN(C)C1=NC(c2ccc3c(c2)c2ccccc2n3Cc2ccc(Cl)cc2Cl)N=C(N)N1` (stereo unspecified), the MIC in assay [2], in assay [3], in [4], in assay [5] and in [6] was 0.5 µg/mL each time.

Consider `c1ccc2c(c1)c1ccccc1n2Cn1cncn1`, for which the MIC in [7] amounted to 31.2 µg/mL (≈ 126 µM); in [8] it was 31.2 µg/mL (≈ 126 µM); in [9], 31.2 µg/mL (≈ 126 µM); in [10], 0.016 µg/mL (≈ 0.0644 µM).

For `Cn1c(=O)c2ncn(CC(O)Cn3c4ccccc4c4cc(Br)ccc43)c2n(C)c1=O` (stereo unspecified), the minimal inhibitory concentration (MIC) in assay [11] turned out to be 8 µM (≈ 3.86 µg/mL); in [12], 33 µM (≈ 15.9 µg/mL).

Regarding `CCn1c2ccccc2c2cc3c(cc21)C(=O)CCC(=O)N3`, the zone of inhibition at 400 µg/mL in [13] is 20 mm; in assay [14], 27 mm; in assay [15] it was 16 mm; in [16] it was 19 mm; in assay [17] it was 18 mm; in assay [18] it was 19 mm.

With `Oc1cc(-c2ccc3c(c2)[nH]c2ccccc23)cc(O)c1O`, the MIC amounted to 3.13 µg/mL (≈ 10.7 µM) in assay [19] and 6.25 µg/mL (≈ 21.5 µM) in [20].

Turning to `CCn1c2ccccc2c2c(Cl)c(N/N=C(/C(C)=O)N3CCN(CCO)CC3)ccc21`, the MIC worked out at 3.12 µg/mL (≈ 7.07 µM) in [21] and 1.56 µg/mL (≈ 3.53 µM) in assay [22].

For `Sc1nnc(Cn2c3ccc(Br)cc3c3cc(Br)ccc32)o1`, the minimum inhibitory concentration (MIC) in assay [23], in assay [24], in assay [25] and in assay [26] was 0.6 µM (≈ 0.263 µg/mL) each time.
